# Laboratory results published in US20250051275A1, “PYRROLE DERIVATIVE OR PHARMACEUTICALLY OR SITOLOGICALLY ACCEPTABLE SALTS THEREOF, AND COMPOSITION FOR PREVENTION, AMELIORATION OR TREATMENT OF GASTROINTESTINAL DISORDERS COMPRISING SAME AS ACTIVE INGREDIENT” (HANA PHARM CO., LTD., priority 2021, published 2025).
# pIC50: −log10 of the molar value. Where two headings read alike, the source gives them in different places.
# Experiments:
# [1] = Storage stability (related substance identification test); assay type: physicochemical; details: for storage stability: stored at −2 to 8° C., in % (unit assumed)
# Source text: An attempt was made to evaluate the storage stability over time of the compound of Example 7 of the present invention and the compound of Comparative Example 1 (which is the deuterium-unsubstituted form of the compound of Example 7) depending on the presence of deuterium substitution.
# [2] = tested on: human gastric cancer cells (AGS Cells); assay: MTS assay, inhibition of proliferation of human gastric cancer cells (AGS Cells); assay type: cell-based; details: 48 hours; for pIC50: read-out: Proliferation inhibitory effect of gastric cancer cells (IC50); for IC50: read-out: Proliferation inhibitory effect of gastric cancer cells (IC50, μM), class symbol
# Procedure: To examine the effect of inhibiting the proliferation of the compounds indicated in the examples of the present invention on human gastric cancer cells (AGS Cells), MTS Assay experiments were in vitro performed. AGS cells were cultured in a 5% CO2 incubator at 37° C. by using RPMI 1640 medium containing 1% penicillin-streptomycin and 10% fetal bovine serum. The cells in culture were separated with using 0.25% Trypsin-0.02% EDTA every 3 to 4 days and subcultured.
# For the experiment, the cultured cells were treated with 0.25% Trypsin-0.02% EDTA solution, the suspended cells were centrifuged at 1,200 rpm for 5 minutes, the supernatant was discarded, a culture medium was added thereto, and a cell suspension was made with the culture medium. Using a hemocytometer, 10,000 cells per well were dispensed into 96-well plates and cultured. After 24 hours, when the cells attached to the plate, the culture medium was discarded, and the cells were treated with new culture media prepared by concentration (test concentrations: 500 μm, 250 μm, 125 μm, 63 μm, 31 μm, 16 μm, 8 μm, 4 μm, and 2 μm) and cultured in a CO2 incubator for 48 hours. After treating with an MTS solution, the cells were incubated in a CO2 incubator for 1 hour, and the absorbance was measured at 490 nm by using a microplate reader device. The cell proliferation inhibition rate was expressed as IC50, which is 50% inhibition of cell proliferation, using GraphPad Prism 5.
# In Table 2 below, the IC50 value is indicated as “+++” for 0 to 50 μM, “++” for 51 to 100 μM, and “+” for 101 to 400 μM.
# [3] = molecular target: proton pump (H+/K+-ATPase) (Sus scrofa (Pig), UniProt P19156); assay: Inhibitory activity on proton pump (H+/K+-ATPase) activity; assay type: biochemical; details: porcine gastric mucosal microsomes, 5 mM KCl, pH 6.4; for pIC50: read-out: Proton pump inhibitory activity (IC50); for IC50: read-out: Proton pump inhibitory activity (IC50, nM), class symbol
# Procedure: The compounds indicated in the above examples were tested for their inhibitory activity on proton pump (H+/K+-ATPase) activity as follows by applying the method disclosed in the literature. According to the methods of Nobuyuki Takahashi and Yukinori Take [J Pharmacol Exp Ther. 2018 February; 364(2):275-286], the gastric mucosal microsome fraction was isolated from the porcine stomach. The stomach isolated from the pig was washed first with tap water, only the fundus was cut, and then washed (a second time) with cold PBS. The gastric mucosa was separated by scraping, homogenized with 250 mM sucrose solution, and centrifuged at 20,000 g at 4° C. for 30 minutes. Only the supernatant was centrifuged at 115,000 g at 4° C. for 30 minutes, and the precipitate was suspended in 250 mM sucrose solution, added to cover with 7% Ficoll solution, and centrifuged at 135,000 g at 4° C. for 60 minutes. The microsome fraction formed at the interface was recovered and suspended in 250 mM sucrose solution, and centrifuged at 135,000 g, 4° C. for 60 minutes, and the precipitate was dissolved in 0.9% NaCl. The isolated gastric mucosal microsome fraction was quantified by using the Bicinchoninic Acid (BCA) kit (Thermo).
# 60 μl of enzyme reaction solution (a test compound at a given concentration, […] of gastric mucosal microsomes, 3 mM of MgSO4, 5 mM of KCl, 40 mM of Tris-HCl pH 6.4, and 0.5 mM of adenosine triphosphate) was added to each well of a 96-well plate and reacted at 37° C. for 60 minutes, and 30 μl of 10% SIDS was added to stop the enzyme reaction. 200 μl of detection solution (in which 10% L-ascorbic acid with pH 5.0 was mixed with 35 mM of ammonium molybdate tetrahydrate/15 mM of zinc acetate with pH 5.0 at the ratio of 4:1) was added and reacted at 37° C. for 30 minutes, and the absorbance value was measured at 750 nm by using a microplate reader (MULTISKAN GO, Thermo). The inhibition rate of proton pump activity was expressed as I050, which is 50% inhibition of enzyme activity, by using GraphPad Prism 5. In Table 1 below, an I050 value of 100 nM or less is indicated by +++, an I050 value of 101 to 200 nM is indicated by ++, and an I050 value of above 200 nM is indicated by +.
# proton pump (H+/K+-ATPase), sequence (P19156 2-1034): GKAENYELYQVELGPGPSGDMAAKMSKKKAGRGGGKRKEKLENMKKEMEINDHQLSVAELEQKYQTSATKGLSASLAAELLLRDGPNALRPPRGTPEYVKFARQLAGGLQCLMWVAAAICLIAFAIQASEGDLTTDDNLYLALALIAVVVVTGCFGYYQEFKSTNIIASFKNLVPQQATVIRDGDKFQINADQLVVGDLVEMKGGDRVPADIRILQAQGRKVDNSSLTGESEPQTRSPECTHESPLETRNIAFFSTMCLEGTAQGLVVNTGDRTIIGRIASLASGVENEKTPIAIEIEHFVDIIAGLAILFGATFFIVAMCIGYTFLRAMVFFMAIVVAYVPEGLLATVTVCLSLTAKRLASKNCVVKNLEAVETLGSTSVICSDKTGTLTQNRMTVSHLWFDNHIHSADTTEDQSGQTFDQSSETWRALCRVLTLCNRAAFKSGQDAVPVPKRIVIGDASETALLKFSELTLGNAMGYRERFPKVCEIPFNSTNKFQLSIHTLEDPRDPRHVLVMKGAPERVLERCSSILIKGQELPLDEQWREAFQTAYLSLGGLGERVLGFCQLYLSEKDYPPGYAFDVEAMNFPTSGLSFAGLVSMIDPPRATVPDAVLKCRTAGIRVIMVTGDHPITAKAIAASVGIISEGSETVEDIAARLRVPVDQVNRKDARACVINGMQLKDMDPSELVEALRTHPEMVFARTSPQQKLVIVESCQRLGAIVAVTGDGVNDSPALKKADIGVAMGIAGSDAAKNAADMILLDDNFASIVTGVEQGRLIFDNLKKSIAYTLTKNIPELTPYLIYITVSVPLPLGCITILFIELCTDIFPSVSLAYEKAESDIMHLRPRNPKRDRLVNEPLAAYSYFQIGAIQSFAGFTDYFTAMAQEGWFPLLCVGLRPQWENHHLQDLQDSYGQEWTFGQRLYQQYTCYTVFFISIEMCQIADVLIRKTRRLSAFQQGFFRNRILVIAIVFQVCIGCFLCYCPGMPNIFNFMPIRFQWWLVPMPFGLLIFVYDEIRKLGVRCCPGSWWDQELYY
# proton pump (H+/K+-ATPase), sequence (P18434 whole entry partner): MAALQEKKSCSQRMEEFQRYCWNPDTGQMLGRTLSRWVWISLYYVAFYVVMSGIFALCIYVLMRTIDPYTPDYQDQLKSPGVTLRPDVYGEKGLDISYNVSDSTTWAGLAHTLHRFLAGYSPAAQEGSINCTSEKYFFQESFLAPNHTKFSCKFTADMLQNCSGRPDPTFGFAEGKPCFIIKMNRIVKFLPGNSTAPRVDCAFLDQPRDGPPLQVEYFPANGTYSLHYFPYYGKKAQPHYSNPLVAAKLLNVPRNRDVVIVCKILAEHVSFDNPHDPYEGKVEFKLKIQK
SMILES,pIC50 ([2]; Homo sapiens),IC50 ([2]; Homo sapiens) [µM],pIC50 [3],IC50 [3] [nM],further results
"CNCc1cc(-c2ccccc2F)n(S(=O)(=O)c2ccc(F)cc2)c1 [Comparative Example 1, reference compound]",,,,,"storage stability, Results ([1]; stored at −2 to 8° C. for 3 months): Unstable; storage stability ([1]; 1st week): 90.61; storage stability ([1]; 2nd week): 81.40; storage stability ([1]; 3 months): 53.8; storage stability ([1]; 3rd week): 76.47; storage stability ([1]; 4th week): 70.39; storage stability ([1]; Initial): 97.99"
"N.N.[Cl][Pt][Cl] [Control Drug 3 (Cisplatin), diamminedichloridoplatinum(II), reference compound]",,,,,pIC50 [2]: 4.72; IC50 [2]: < 50 µM
"[2H]C([2H])([2H])NCc1cc(-c2ccccc2F)n(S(=O)(=O)c2ccc(Br)cc2)c1 [Example 5, N-((1-((4-bromophenyl)sulfonyl)-5-(2-fluorophenyl)-1H-pyrrol-3-yl)methyl)methan-d3-amine]",,,7.44,≤ 100,
"[2H]C([2H])([2H])NCc1cc(-c2ccccc2F)n(S(=O)(=O)c2ccc(Cl)cc2)c1 [Example 6, N-((1-((4-chlorophenyl)sulfonyl)-5-(2-fluorophenyl)-1H-pyrrol-3-yl)methyl)methan-d3-amine]",4.66,< 50,7.59,≤ 100,
"[2H]C([2H])([2H])NCc1cc(-c2ccccc2F)n(S(=O)(=O)c2ccc(OC(F)(F)F)cc2)c1 [Example 8, N-((5-(2-fluorophenyl)-1-((4-(trifluoromethoxy)phenyl)sulfonyl)-1H-pyrrol-3-yl)methyl)methan-d3-amine]",4.91,< 50,7.29,≤ 100,
"[2H]C([2H])([2H])NCc1cc(-c2cccc(F)c2)n(S(=O)(=O)c2ccc(Cl)cc2)c1 [Example 10, N-((1-((4-chlorophenyl)sulfonyl)-5-(3-fluorophenyl)-1H-pyrrol-3-yl)methyl)methan-d3-amine]",,,7.22,≤ 100,
"[2H]C([2H])([2H])NCc1cc(-c2cccc(F)c2)n(S(=O)(=O)c2ccc(OC)cc2)c1 [Example 11, N-((5-(3-fluorophenyl)-1-((4-methoxyphenyl)sulfonyl)-1H-pyrrol-3-yl)methyl)methan-d3-amine]",,,7.12,≤ 100,
"[2H]C([2H])([2H])NCc1cc(-c2ccc(F)cc2F)n(S(=O)(=O)c2ccc(Br)cc2)c1 [Example 13, N-((1-((4-bromophenyl)sulfonyl)-5-(2,4-difluorophenyl)-1H-pyrrol-3-yl)methyl)methan-d3-amine]",4.85,< 50,,,
"[2H]C([2H])([2H])NCc1cc(-c2ccc(F)cc2F)n(S(=O)(=O)c2ccc(C)cc2)c1 [Example 16, N-((5-(2,4-difluorophenyl)-1-tosyl-1H-pyrrol-3-yl)methyl)methane-d3-amine]",,,7.09,≤ 100,
"[2H]C([2H])([2H])NCc1cc(-c2ccc(F)cc2F)n(S(=O)(=O)c2ccc(OC)cc2)c1 [Example 17, N-((5-(2,4-difluorophenyl)-1-((4-methoxyphenyl)sulfonyl)-1H-pyrrol-3-yl)methyl)methan-d3-amine]",,,7.08,≤ 100,
"[2H]C([2H])([2H])NCc1cc(-c2cccc(F)c2)n(S(=O)(=O)c2ccc(C#N)cc2)c1 [Example 22, 4-((2-(3-fluorophenyl)-4-(((methyl-d3)amino)methyl)-1H-pyrrol-1-yl)sulfonyl)benzonitrile]",4.65,< 50,,,
"[2H]C([2H])([2H])NCc1cn(S(=O)(=O)c2cccnc2)c(-c2c(F)cc(F)cc2F)c1OC [Example 39, N-((4-methoxy-1-(pyridin-3-ylsulfonyl)-5-(2,4,6-trifluorophenyl)-1H-pyrrol-3-yl)methyl)methan-d3-amine]",,,7.42,≤ 100,

# Further lines, with some results ahead:
pIC50 ([2]; Homo sapiens),IC50 ([2]; Homo sapiens) [µM],pIC50 [3],IC50 [3] [nM],SMILES,further results
3.71,101 to 400,,,"COc1ccc2nc([S@@+]([O-])Cc3ncc(C)c(OC)c3C)[nH]c2c1 [Control Drug 2 (Esomeprazole), 6-methoxy-2-[(S)-(4-methoxy-3,5-dimethylpyridin-2-yl)methylsulfinyl]-1H-benzimidazole, reference compound]",
4.76,< 50,7.17,≤ 100,"[2H]C([2H])([2H])NCc1cc(-c2ccccc2F)n(S(=O)(=O)c2ccc(C)cc2)c1 [Example 2, N-((5-(2-fluorophenyl)-1-tosyl-1H-pyrrol-3-yl)methyl)methan-d3-amine]",
5.46,< 50,7.32,≤ 100,"[2H]C([2H])([2H])NCc1cc(-c2ccccc2F)n(S(=O)(=O)c2ccc(OC)cc2)c1 [Example 3, N-((5-(2-fluorophenyl)-1-((4-methoxyphenyl)sulfonyl)-1H-pyrrol-3-yl)methyl)methan-d3-amine]",
4.49,< 50,7.05,≤ 100,"[2H]C([2H])([2H])NCc1cc(-c2ccccc2F)n(S(=O)(=O)c2ccc(C#N)cc2)c1 [Example 4, 4-((2-(2-fluorophenyl)-4-(((methyl-d3)amino)methyl)-1H-pyrrol-1-yl)sulfonyl)benzonitrile]",
4.38,< 50,,,"[2H]C([2H])([2H])NCc1cc(-c2ccc(F)cc2)n(S(=O)(=O)c2ccc(F)cc2)c1 [Example 24, N-((5-(4-fluorophenyl)-1-((4-fluorophenyl)sulfonyl)-1H-pyrrol-3-yl)methyl)methan-d3-amine]",
4.61,< 50,,,"[2H]C([2H])([2H])NCc1cc(-c2ccc(F)cc2)n(S(=O)(=O)c2ccc(Br)cc2)c1 [Example 25, N-((1-((4-bromophenyl)sulfonyl)-5-(4-fluorophenyl)-1H-pyrrol-3-yl)methyl)methan-d3-amine]",
4.88,< 50,,,"[2H]C([2H])([2H])NCc1cc(-c2ccc(F)cc2)n(S(=O)(=O)c2ccc(Cl)cc2)c1 [Example 26, N-((1-((4-chlorophenyl)sulfonyl)-5-(4-fluorophenyl)-1H-pyrrol-3-yl)methyl)methan-d3-amine]",
,,7.06,≤ 100,"[2H]C([2H])([2H])NCc1cn(S(=O)(=O)c2ccc(OC)nc2)c(-c2ccc(F)cc2F)c1OC [Example 37, N-((5-(2,4-difluorophenyl)-4-methoxy-1-((6-methoxypyridin-3-yl)sulfonyl)-1H-pyrrol-3-yl)methyl) methane-d3-amine]",
,,7.19,≤ 100,"[2H]C([2H])([2H])NCc1cn(S(=O)(=O)c2ccc(OC)nc2)c(-c2c(F)cc(F)cc2F)c1OC [Example 40, N-((4-methoxy-1-((6-methoxypyridin-3-yl)sulfonyl)-5-(2,4,6-trifluorophenyl)-1H-pyrrol-3-yl)methyl)methane-d3-amine]",
